Test results as given in patent publication US7056893B2, “Topical treatment for prevention of ocular infections” (Insite Vision, Inc., priority 1999, dated 2006).

Key:
[1] = format: physicochemical
Experimental: The thermal stability of azithromycin at 40° C. is measured in 50 mM phosphate buffer adjusted to the pH values indicated in FIG. 2. FIG. 3 is a secondary plot of data derived from the azithromycin stability profiles in FIG. 2. […] 6-6.5. A formulation pH of 6.3 is preferred to minimize degradation of azithromycin in aqueous formulations including those that employ DuraSite®.

[2] = format: physicochemical; remark: listed apart in the source
Excerpt: Ophthalmic carrier(s) is used in a broad sense and includes any material or composition that can contain and release the azalide antibiotic and that is compatible with the eye. Typically the ophthalmically acceptable carrier is water or an aqueous solution or suspension, but also includes oils such as those used to make ointments and polymer matrices such as used in ocular inserts. […] The stabilized compositions of this invention advantageously employ the increased water solubility of the protonated form of the antibiotic that is compatible with the optimal pH range for azalide antibiotic stability. […] Accordingly, stabilized aqueous solution of an azalide antibiotic can be formed and used for topical application. Alternatively, aqueous compositions containing a portion of the azalide antibiotic in suspension may be employed for topical administration. Ointments and solid dosage forms can also be used as delivery compositions as are well known in the art. The concentration of azalide antibiotic present in the ophthalmic composition depends upon the dosage form, the release rate, the dosing regimen, and the location and type of infection. […]
The solubility of azithromycin is measured as a function of pH in 0.2 M citric acid buffer over the range of pH 5.91 to 9.0.

| SMILES | pH interval of maximum stability [1] | pH of stability maximum [1] | water solubility [2] [mg/mL] |
| --- | --- | --- | --- |
| CCC1OC(=O)C(C)C(OC2CC(C)(OC)C(O)C(C)O2)C(C)C(OC2OC(C)CC(N(C)C)C2O)C(C)(O)CC(C)CN(C)C(C)C(O)C1(C)O (stereo not drawn) [Azithromycin, N-methyl-11-aza-10-deoxo-10-dihydroerythromycin] | 5.0-7.0 | about 6.3 | – |
| CC[C@H]1OC(=O)[C@H](C)[C@@H](O[C@H]2C[C@@](C)(OC)[C@@H](O)[C@H](C)O2)[C@H](C)[C@@H](O[C@@H]2O[C@H](C)C[C@H](N(C)C)[C@H]2O)[C@](C)(O)C[C@@H](C)CN(C)[C@H](C)[C@@H](O)[C@]1(C)O.O.O [azithromycin dihydrate] | – | – | 200 to 250 |
